Assays:
[1] = biological target: T1, DLK (Homo sapiens, UniProt Q12852); set-up: method as in earlier work; conditions: Table S1; cited from earlier work
T1 sequence (Q12852 1-859): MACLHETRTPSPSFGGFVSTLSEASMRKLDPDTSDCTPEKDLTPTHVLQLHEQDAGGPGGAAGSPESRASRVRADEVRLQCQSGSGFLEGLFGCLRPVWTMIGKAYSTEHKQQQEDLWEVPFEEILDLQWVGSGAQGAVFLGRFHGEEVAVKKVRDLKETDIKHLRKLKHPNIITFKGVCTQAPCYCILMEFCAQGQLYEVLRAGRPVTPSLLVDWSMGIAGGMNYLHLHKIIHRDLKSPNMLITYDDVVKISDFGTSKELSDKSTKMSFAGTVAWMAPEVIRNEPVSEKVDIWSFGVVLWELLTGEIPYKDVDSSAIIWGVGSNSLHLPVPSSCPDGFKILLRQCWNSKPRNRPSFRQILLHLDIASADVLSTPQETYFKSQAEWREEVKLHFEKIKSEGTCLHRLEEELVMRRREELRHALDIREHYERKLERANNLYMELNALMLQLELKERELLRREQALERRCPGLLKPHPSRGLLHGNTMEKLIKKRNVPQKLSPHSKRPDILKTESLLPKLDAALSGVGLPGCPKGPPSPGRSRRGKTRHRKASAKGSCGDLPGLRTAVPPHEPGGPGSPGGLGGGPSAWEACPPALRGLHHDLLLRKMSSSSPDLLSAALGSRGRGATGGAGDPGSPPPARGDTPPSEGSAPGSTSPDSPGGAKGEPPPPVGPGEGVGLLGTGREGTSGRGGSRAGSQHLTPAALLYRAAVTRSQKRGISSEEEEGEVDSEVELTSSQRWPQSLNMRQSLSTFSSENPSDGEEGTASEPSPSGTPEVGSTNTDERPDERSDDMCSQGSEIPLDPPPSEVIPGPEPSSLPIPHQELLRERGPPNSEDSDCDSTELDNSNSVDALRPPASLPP

[2] = test system: ERK; set-up: method as in earlier work; conditions: Table S1; cited from earlier work
[3] = biological target: T2, RIPK2 (Homo sapiens, UniProt O43353); assay: KINOMEscan panel screen; format: binding; conditions: read-out: Percent Control(%)
T2 construct: purchased DiscoveRx KINOMEscan (Ambit Biosciences)

[4] = biological target: FLT3-D835Y (Homo sapiens, UniProt P36888, D835Y); assay: KINOMEscan kinase binding assay (Kd); set-up: purchased Ambit Biosciences (KINOMEscan)
[5] = test system: MDA-MB-231; assay: MTT cell viability assay; conditions: Homo sapiens, MDA-MB-231, 72 h
[6] = biological target: T3, FGFR3 (Homo sapiens, UniProt P22607); assay: KINOMEscan panel screen; format: binding; conditions: read-out: Percent Control(%)
T3 construct: purchased DiscoveRx KINOMEscan (Ambit Biosciences)

[7] = biological target: T4, MTOR (Homo sapiens, UniProt P42345); assay: KINOMEscan panel screen; format: binding; conditions: read-out: Percent Control(%)
T4 construct: purchased DiscoveRx KINOMEscan (Ambit Biosciences)

[8] = biological target: T5, MEK2 (Homo sapiens, UniProt P36507); assay: KINOMEscan panel screen; format: binding; conditions: read-out: Percent Control(%)
T5 construct: purchased DiscoveRx KINOMEscan (Ambit Biosciences)

[9] = biological target: T6, HIPK1 (Homo sapiens, UniProt Q86Z02); assay: KINOMEscan panel screen; format: binding; conditions: read-out: Percent Control(%)
T6 construct: purchased DiscoveRx KINOMEscan (Ambit Biosciences)

[10] = biological target: T7, ARK5 (Homo sapiens, UniProt O60285); assay: KINOMEscan panel screen; format: binding; conditions: read-out: Percent Control(%)
T7 construct: purchased DiscoveRx KINOMEscan (Ambit Biosciences)

[11] = biological target: T8, NEK5 (Homo sapiens, UniProt Q6P3R8); assay: KINOMEscan panel screen; format: binding; conditions: read-out: Percent Control(%)
T8 construct: purchased DiscoveRx KINOMEscan (Ambit Biosciences)

[12] = biological target: T9, SGK (Homo sapiens, UniProt O00141); assay: KINOMEscan panel screen; format: binding; conditions: read-out: Percent Control(%)
T9 construct: purchased DiscoveRx KINOMEscan (Ambit Biosciences)

[13] = biological target: T10, ERBB4 (Homo sapiens, UniProt Q15303); assay: KINOMEscan panel screen; format: binding; conditions: read-out: Percent Control(%)
T10 construct: purchased DiscoveRx KINOMEscan (Ambit Biosciences)

[14] = biological target: T11, NIM1 (Homo sapiens, UniProt Q8IY84); assay: KINOMEscan panel screen; format: binding; conditions: read-out: Percent Control(%)
T11 construct: purchased DiscoveRx KINOMEscan (Ambit Biosciences)

[15] = biological target: T12, ERK3 (Homo sapiens, UniProt Q16659); assay: KINOMEscan panel screen; format: binding; conditions: read-out: Percent Control(%)
T12 construct: purchased DiscoveRx KINOMEscan (Ambit Biosciences)

[16] = biological target: T13, FLT4 (Homo sapiens, UniProt P35916); assay: KINOMEscan panel screen; format: binding; conditions: read-out: Percent Control(%)
T13 construct: purchased DiscoveRx KINOMEscan (Ambit Biosciences)

[17] = biological target: T14, BRSK2 (Homo sapiens, UniProt Q8IWQ3); assay: KINOMEscan panel screen; format: binding; conditions: read-out: Percent Control(%)
T14 construct: purchased DiscoveRx KINOMEscan (Ambit Biosciences)

[18] = biological target: T15, TRPM6 (Homo sapiens, UniProt Q9BX84); assay: KINOMEscan panel screen; format: binding; conditions: read-out: Percent Control(%)
T15 construct: purchased DiscoveRx KINOMEscan (Ambit Biosciences)

[19] = biological target: T16, RPS6KA4(Kin.Dom.1-N-terminal) (Homo sapiens, UniProt O75676); assay: KINOMEscan panel screen; format: binding; conditions: read-out: Percent Control(%)
T16 construct: RPS6KA4(Kin.Dom.1-N-terminal); purchased DiscoveRx KINOMEscan (Ambit Biosciences)
T16 sequence (O75676 33-301 limits assumed): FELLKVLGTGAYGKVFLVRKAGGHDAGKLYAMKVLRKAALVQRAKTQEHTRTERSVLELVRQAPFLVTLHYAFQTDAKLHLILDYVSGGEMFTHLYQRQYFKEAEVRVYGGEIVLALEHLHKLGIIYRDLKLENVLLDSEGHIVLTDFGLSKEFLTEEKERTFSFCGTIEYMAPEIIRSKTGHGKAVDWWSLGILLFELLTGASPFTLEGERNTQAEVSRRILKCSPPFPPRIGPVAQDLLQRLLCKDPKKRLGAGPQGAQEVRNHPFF

T5 sequence (P36507 whole entry): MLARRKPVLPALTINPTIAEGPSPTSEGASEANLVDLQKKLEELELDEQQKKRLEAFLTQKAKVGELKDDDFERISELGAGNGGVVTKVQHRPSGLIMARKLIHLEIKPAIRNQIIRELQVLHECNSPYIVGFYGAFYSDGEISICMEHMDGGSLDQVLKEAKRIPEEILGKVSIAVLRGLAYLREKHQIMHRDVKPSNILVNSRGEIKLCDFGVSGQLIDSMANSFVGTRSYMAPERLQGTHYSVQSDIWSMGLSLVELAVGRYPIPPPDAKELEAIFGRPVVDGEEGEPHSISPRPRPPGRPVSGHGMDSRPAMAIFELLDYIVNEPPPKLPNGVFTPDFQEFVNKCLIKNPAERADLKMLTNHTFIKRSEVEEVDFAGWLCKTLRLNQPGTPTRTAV
T6 sequence (Q86Z02 whole entry): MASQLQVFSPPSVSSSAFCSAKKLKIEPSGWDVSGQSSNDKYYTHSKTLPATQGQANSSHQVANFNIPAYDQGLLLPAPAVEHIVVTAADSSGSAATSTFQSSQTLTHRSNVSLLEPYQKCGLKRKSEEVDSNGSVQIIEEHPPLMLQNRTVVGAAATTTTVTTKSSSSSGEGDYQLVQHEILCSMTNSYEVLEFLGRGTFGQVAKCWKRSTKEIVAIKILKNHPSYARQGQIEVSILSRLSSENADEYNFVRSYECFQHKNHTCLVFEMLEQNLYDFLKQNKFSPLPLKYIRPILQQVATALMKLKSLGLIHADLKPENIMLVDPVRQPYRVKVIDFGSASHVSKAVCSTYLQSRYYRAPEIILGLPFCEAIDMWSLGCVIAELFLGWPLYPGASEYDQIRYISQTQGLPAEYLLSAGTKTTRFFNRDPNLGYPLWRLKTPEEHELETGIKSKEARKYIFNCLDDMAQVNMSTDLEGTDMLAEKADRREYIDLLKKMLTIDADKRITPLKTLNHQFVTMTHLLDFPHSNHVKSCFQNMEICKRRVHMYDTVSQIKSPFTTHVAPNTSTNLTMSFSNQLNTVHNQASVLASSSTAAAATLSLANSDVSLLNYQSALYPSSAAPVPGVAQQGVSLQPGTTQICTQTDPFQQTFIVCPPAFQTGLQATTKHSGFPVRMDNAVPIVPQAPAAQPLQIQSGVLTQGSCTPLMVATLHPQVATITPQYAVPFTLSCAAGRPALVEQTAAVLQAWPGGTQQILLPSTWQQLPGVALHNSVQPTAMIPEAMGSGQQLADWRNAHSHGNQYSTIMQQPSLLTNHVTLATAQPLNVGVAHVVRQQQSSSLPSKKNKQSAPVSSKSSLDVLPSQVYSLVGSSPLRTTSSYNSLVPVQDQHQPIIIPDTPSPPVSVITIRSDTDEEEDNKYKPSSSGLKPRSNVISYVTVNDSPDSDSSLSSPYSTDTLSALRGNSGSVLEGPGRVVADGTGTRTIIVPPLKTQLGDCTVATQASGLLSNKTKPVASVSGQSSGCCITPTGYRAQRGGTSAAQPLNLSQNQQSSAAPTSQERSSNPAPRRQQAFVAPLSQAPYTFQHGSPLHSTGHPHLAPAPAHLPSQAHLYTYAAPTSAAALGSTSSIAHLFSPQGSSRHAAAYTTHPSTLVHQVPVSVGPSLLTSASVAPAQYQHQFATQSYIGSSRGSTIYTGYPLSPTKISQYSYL
T15 sequence (Q9BX84 whole entry): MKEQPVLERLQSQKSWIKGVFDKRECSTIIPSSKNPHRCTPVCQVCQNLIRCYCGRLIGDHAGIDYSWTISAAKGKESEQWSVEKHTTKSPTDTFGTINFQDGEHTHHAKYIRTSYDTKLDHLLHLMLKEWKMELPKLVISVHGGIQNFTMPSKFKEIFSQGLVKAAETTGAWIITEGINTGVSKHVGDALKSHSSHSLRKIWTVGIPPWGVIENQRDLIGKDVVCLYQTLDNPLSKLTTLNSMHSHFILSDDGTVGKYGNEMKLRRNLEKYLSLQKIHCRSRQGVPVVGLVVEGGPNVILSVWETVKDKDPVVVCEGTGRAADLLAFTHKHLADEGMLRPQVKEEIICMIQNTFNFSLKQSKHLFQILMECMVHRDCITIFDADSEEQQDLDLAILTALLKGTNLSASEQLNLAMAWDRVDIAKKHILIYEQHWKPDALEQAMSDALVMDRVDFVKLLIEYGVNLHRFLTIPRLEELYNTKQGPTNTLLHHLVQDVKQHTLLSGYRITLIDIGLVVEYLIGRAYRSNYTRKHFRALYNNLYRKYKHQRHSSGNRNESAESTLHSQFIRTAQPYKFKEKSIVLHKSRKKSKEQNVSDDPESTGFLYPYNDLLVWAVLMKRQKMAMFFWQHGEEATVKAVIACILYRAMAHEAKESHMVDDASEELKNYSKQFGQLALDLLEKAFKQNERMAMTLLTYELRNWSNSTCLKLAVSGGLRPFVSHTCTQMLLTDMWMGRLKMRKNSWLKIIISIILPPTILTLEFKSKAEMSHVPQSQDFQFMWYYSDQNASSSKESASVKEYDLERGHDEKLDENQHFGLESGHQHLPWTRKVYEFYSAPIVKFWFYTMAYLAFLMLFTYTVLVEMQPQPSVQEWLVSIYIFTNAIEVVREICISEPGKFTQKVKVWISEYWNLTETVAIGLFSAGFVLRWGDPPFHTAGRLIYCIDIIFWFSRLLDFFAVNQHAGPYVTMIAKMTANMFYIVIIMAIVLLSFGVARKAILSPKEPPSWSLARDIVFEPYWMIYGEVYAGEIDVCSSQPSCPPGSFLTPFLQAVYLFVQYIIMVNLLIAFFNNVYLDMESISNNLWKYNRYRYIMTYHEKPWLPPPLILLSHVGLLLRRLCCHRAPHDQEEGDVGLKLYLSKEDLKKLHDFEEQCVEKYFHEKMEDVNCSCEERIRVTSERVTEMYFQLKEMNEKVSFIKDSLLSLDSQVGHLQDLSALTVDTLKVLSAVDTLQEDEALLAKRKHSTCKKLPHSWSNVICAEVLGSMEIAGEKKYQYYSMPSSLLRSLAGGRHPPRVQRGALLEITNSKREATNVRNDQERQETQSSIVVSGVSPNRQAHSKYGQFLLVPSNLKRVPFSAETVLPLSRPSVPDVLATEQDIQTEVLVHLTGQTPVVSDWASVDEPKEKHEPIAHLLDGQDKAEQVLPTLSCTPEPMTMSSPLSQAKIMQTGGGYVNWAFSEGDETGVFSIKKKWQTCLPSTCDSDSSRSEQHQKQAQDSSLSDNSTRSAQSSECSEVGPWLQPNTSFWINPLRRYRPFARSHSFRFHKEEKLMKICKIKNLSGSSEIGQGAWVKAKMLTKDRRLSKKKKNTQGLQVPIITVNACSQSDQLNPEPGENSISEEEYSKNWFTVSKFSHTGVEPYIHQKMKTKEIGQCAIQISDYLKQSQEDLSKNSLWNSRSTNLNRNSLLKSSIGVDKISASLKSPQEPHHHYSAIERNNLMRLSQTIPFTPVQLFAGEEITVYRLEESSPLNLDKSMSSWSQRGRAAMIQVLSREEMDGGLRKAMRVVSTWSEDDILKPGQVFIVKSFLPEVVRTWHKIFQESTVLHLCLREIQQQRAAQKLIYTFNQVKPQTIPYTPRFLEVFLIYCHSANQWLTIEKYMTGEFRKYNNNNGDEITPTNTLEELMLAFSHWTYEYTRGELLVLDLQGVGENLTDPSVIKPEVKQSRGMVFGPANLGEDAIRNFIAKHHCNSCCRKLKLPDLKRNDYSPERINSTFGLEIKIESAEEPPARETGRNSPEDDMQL
T8 sequence (Q6P3R8 whole entry): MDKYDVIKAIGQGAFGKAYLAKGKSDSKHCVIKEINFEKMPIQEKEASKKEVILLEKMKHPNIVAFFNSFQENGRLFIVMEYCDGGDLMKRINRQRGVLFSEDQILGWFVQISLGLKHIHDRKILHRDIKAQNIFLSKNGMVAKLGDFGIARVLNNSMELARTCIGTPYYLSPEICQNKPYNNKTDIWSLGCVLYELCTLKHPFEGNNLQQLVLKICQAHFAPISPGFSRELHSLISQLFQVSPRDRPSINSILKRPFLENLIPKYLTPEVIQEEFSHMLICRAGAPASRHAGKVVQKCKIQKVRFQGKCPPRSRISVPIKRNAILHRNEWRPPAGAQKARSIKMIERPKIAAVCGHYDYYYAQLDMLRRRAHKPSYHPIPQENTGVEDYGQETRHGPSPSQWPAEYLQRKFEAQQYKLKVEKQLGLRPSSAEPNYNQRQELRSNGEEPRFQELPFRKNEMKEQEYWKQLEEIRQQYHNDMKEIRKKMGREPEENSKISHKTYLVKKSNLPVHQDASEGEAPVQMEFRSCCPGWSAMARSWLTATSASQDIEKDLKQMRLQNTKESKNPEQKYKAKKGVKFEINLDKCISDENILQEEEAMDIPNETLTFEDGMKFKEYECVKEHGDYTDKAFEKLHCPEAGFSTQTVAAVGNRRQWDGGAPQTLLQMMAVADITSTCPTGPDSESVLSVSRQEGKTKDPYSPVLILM
T11 sequence (Q8IY84 whole entry): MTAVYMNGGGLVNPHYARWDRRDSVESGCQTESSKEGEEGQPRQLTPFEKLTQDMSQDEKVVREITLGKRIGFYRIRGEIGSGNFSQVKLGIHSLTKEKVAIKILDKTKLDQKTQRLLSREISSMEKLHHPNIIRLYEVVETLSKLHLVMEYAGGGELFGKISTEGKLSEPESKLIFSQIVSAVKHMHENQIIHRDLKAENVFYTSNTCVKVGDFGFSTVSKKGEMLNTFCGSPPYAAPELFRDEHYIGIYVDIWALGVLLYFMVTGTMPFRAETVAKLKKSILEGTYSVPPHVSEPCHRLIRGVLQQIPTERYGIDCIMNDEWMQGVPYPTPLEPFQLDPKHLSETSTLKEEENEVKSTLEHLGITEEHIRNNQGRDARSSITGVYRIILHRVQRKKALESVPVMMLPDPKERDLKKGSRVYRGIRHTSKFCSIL

SMILES	IC50 [1]	IC50 [2]	remaining binding at 10 µM [3]	Kd [4]	IC50 [5]	remaining binding at 10 µM [6]	remaining binding at 10 µM [7]	remaining binding at 10 µM [8]	remaining binding at 10 µM [9]	remaining binding at 10 µM [10]	remaining binding at 10 µM [11]	remaining binding at 10 µM [12]	remaining binding at 10 µM [13]	remaining binding at 10 µM [14]	remaining binding at 10 µM [15]	remaining binding at 10 µM [16]	remaining binding at 10 µM [17]	remaining binding at 10 µM [18]	remaining binding at 10 µM [19]
O=C(Nc1ccc(Oc2ncnc3[nH]ncc23)cc1)Nc1ccc(Cl)c(C(F)(F)F)c1 [Compound 1, 1-(4-(1H-pyrazolo[3,4-d]pyrimidin-4-yloxy)phenyl)-3-(4-chloro-3-(trifluoromethyl)phenyl)urea]	> 10 µM	> 10 µM	–	–	–	–	–	–	–	–	–	–	–	–	–	–	–	–	–
CC(C)(C)c1cc(NC(=O)Nc2ccc(Oc3ncnc4[nH]ncc34)c(F)c2)no1 [SKLB-677, 1-(4-(1H-pyrazolo[3,4-d]pyrimidin-4-yloxy)-3-fluorophenyl)-3-(5-tert-butylisoxazol-3-yl)urea]	–	–	0.75%	0.0013 µM	> 10 µM	12%	100%	5.9%	68%	47%	9.8%	29%	81%	33%	79%	0%	76%	89%	29%

Source: paper PMC4620497 (Scientific Reports, 2015)
